Our source for the IC50 values is patent publication US7977352B2, “Triazolopyridine compounds useful for the treatment of degenerative and inflammatory diseases” (Galapagos NV, priority 2006, dated 2011).

In assay [1] the test system is MMP1 expression by activated synovial fibroblasts (RASFs). The assay is described as follows: MMP assay: MMP1 expression by RASFs triggered with TNF-α (MMP1 ELISA). In kind it is cell-based. To be noted: TNF-α trigger 10 ng/mL, semi-quantitative score, read-out: REDUCTION MMP1/TNFa. A digest of the protocol:
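Primary RA synovial fibroblasts (passage 10–12, 3000 cells/well) were preincubated 90 min with compound in M199/1% FBS (0.2% DMSO), then triggered with TNF-α at 10 ng/mL final or 12.5% complex trigger for 48 h. MMP1 in supernatant was measured by sandwich chemiluminescent ELISA; untriggered and vehicle-triggered wells served as min/max controls.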
In general terms: An ELISA detects its analyte on a solid surface through an enzyme-linked reagent.

Assay [2] has the same test system. The assay is described as follows: MMP assay: MMP1 expression by RASFs triggered with 'complex trigger' (supernatant of TNF-α-treated THP-1 cells). In kind it is cell-based. The following applies: 'complex trigger' 12.5%, MMP1 ELISA, semi-quantitative score, read-out: Reduction MMP1/THP1. Here is the method:
A 384-well format ELISA for measurement of MMP1 is developed. Various primary antibodies are tested, as well as various ELISA protocols. The following protocol is developed and validated to measure MMP1 levels in SF supernatant in 384 well plates: white Lumitrac 600 384 well plates (Greiner) are coated with 2 μg/mL anti-MMP1 antibody MAB1346 (Chemicon). The antibody is diluted in buffer 40 (1.21 g Tris base (Sigma), 0.58 g NaCl (Calbiochem) and 5 mL 10% NaN3 (Sigma) in 1 L milliQ water and adjusted to pH 8.5). After overnight incubation at 4° C., plates are washed with PBS (80 g NaCl, 2 g KCl (Sigma), 11.5 g Na2HPO4.7H2O and 2 g KH2PO4 in 10 L milliQ; pH 7.4) and blocked with 100 μL/well Casein buffer (2% Casein (VWR International) in PBS). Next day, casein buffer is removed from ELISA plates and replaced by 50 μL/well EC buffer (4 g casein, 2.13 g Na2HPO4 (Sigma), 2 g bovine albumin (Sigma), 0.69 g NaH2PO4.H2O (Sigma), 0.5 g CHAPS (Roche), 23.3 g NaCl, 4 mL 0.5 M EDTA pH 8 (Invitrogen), 5 mL 10% NaN3 in 1 L milliQ and adjusted to pH 7.0). 0.25 mM DTT (Sigma) is added to the thawed sample plates. After removal of the EC buffer, 20 μL of sample is transferred to the ELISA plates. After overnight incubation at 4° C. plates are washed twice with PBS and once with PBST (PBS with 0.05% Tween-20 (Sigma)) and incubated with 35 μL/well biotinylated anti-MMP1 antibody solution (R&D). This secondary antibody is diluted in buffer C (0.82 g NaH2PO4.H2O, 4.82 g Na2HPO4, 46.6 g NaCl, 20 g bovine albumin and 4 mL 0.5M EDTA pH 8 in 2 L milliQ and adjusted to pH 7.0) at a concentration of 5 μg/mL. After 2 h of incubation at RT, plates are washed as described above and incubated with 50 μL/well streptavidin-HRP conjugate (Biosource). Streptavidin-HRP conjugate is diluted in buffer C at a concentration of 0.25 μg/mL. After 45 min, plates are washed as described above and incubated for 5 min with 50 μL/well BM Chem ELISA Substrate (Roche). Readout is performed on the Luminoscan Ascent Luminometer (Labsystems) with an integration time of 200 msec or with an Envision reader (Perkin Elmer).
The increase of MMP1 expression by SFs upon treatment with cytokines relevant in the field of RA (TNF-α, IL1β and OSM) or a combination thereof is shown in FIG. 2 as white bars. For this experiment, SFs are seeded in 96 well plates, 3,000 cells/well. 24 h later, the medium is changed to M199 medium supplemented with 1% FBS. One day after the medium change, cytokines or combinations thereof are added to the cultures, each cytokine being added to a final concentration of 25 ng/mL. 72 h after cytokine addition, the supernatant is collected and processed in the MMP1 ELISA as described in the protocol given above. In parallel with this experiment, SFs are triggered, using the same protocol, with the supernatant of THP1 cells (2-fold diluted in M199+1% FBS) treated with the same cytokines or combinations of cytokines for 48 h in M199 medium+1% FBS. The induction of the MMP1 expression by SFs triggered with the supernatants of TNF-α-treated THP1 cells is stronger (>4.5 fold induction) as compared to the SFs triggered with recombinant TNF-α alone (3-fold induction) and almost equals the 5-fold induction obtained by a mixture of 3 purified cytokines (TNF-α, IL1βb, OSM). […] As the role of TNF-α in the RA pathogenesis is validated (TNF-α-blockers as Infliximab and Ethanercept show some efficacy in the treatment of RA patients) and the THP-1 cells are representative for monocytes/macrophages present in the joint of RA patients, the TNF-α-based trigger mixture prepared by contacting THP-1 cells with TNF-α will contain factors present in the joints of RA patients and subsequently is relevant to RA. This TNF-α-based complex trigger, further referred to as the ‘complex trigger’, will further be used as basis for the ‘MMP assay’. For preparing a stock of this ‘complex trigger’, THP-1 cells are used between passage 8 and 16. […]

Turning to `NC(=O)c1ccc(-c2ccc(Nc3ccc(N4CCOCC4)cc3)c3ncnn23)cc1` [Example 1, 4-[8-(4-Morpholin-4-yl-phenylamino)-[1,2,4]triazolo[1,5-a]pyridin-5-yl]-benzamide], the IC50 in assay [1] (Fibroblast, 48 h) is 501 to 1000 nM; in assay [2] (Homo sapiens, THP-1, 48 h), greater than 10000 nM.

Consider `CN1CCN(c2ccc(Nc3ccc(-c4cn[nH]c4)n4ncnc34)cc2)CC1` [Example 2, [4-(4-Methyl-piperazin-1-yl)-phenyl]-[5-(1H-pyrazol-4-yl)-[1,2,4]triazolo[1,5-a]pyridin-8-yl]-amine], for which the IC50 fell in the range of 501 to 1000 nM in assay [1] (Fibroblast, 48 h) and 5000 to 10000 nM in assay [2] (Homo sapiens, THP-1, 48 h).

Regarding `O=C(NCc1cccnc1)c1ccc(Nc2ccc(-c3cn[nH]c3)n3ncnc23)cc1` [Example 3, 4-[5-(1H-Pyrazol-4-yl)-[1,2,4]triazolo[1,5-a]pyridin-8-ylamino]-N-pyridin-3-ylmethyl-benzamide], the IC50 was in the range of 501 to 1000 nM in assay [1] (48 hrs) and 1000 to 5000 nM in assay [2] (48 hrs).

`CN1CCN(c2ccc(Nc3ccc(-c4cc[nH]c(=O)c4)n4ncnc34)cc2)CC1` [Example 4, 4-{8-[4-(4-Methyl-piperazin-1-yl)-phenylamino]-[1,2,4]triazolo[1,5-a]pyridin-5-yl}-1H-pyridin-2-one]: the IC50 in assay [1] (48 hrs) lay in the range of 501 to 1000 nM; in assay [2] (48 hrs), 1000 to 5000 nM.

`O=C(NCc1cccnc1)c1ccc(Nc2ccc(-c3cc[nH]c(=O)c3)n3ncnc23)cc1` [Example 5, 4-[5-(2-oxo-1,2-dihydro-pyridin-4-yl)-[1,2,4]triazolo[1,5-a]pyridin-8-ylamino]-N-pyridin-3-ylmethyl-benzamide]: the IC50 in assay [1] (48 hrs) is 501 to 1000 nM; in assay [2] (48 hrs) it was greater than 10000 nM.

Consider `c1nc2c(Nc3ccc(N4CCOCC4)cc3)ccc(-c3cn[nH]c3)n2n1` [Example 7, (4-Morpholin-4-yl-phenyl)-[5-(1H-pyrazol-4-yl)-[1,2,4]triazolo[1,5-a]pyridin-8-yl]-amine], for which the IC50 lay within 501 to 1000 nM in assay [1] (Fibroblast, 48 h) and 5000 to 10000 nM in assay [2] (Homo sapiens, THP-1, 48 h).

With `Cc1[nH]ncc1-c1ccc(Nc2ccc(N3CCOCC3)cc2)c2ncnn12` [Example 8, [5-(5-Methyl-1H-pyrazol-4-yl)-[1,2,4]triazolo[1,5-a]pyridin-8-yl]-(4-morpholin-4-yl-phenyl)-amine], the IC50 in assay [1] (48 hrs) was in the range of 1000 to 5000 nM; in assay [2] (48 hrs), 5000 to 10000 nM.

For `CN1CCN(c2ccc(Nc3ccc(-c4cn[nH]c4)n4ncnc34)cc2)CC1` [Example 36, N-[4-(4-methylpiperazin-1-yl)phenyl]-5-(1H-pyrazol-4-yl)[1,2,4]triazolo[1,5-a]pyridin-8-amine], the values for the IC50 in assay [1] (48 hrs) and in assay [2] (48 hrs) were 1000 to 5000 nM and greater than 10000 nM, respectively.

For the molecule `O=C(NCc1cccnc1)c1ccc(Nc2ccc(-c3cn[nH]c3)n3ncnc23)cc1` [Example 37, 4-{[5-(1H-pyrazol-4-yl)[1,2,4]triazolo[1,5-a]pyridin-8-yl]amino}-N-(pyridin-3-ylmethyl)benzamide], the IC50 was less than 500 nM in assay [1] (Fibroblast, 48 h) and 1000 to 5000 nM in assay [2] (Homo sapiens, THP-1, 48 h).

With `Cc1[nH]ncc1-c1ccc(Nc2ccc(N3CCOCC3)cc2)c2ncnn12` [Example 39, 5-(5-methyl-1H-pyrazol-4-yl)-N-(4-morpholin-4-ylphenyl)[1,2,4]triazolo[1,5-a]pyridin-8-amine], the IC50 in assay [1] (48 hrs) is 5000 to 10000 nM; in assay [2] (Homo sapiens, THP-1, 48 h), greater than 10000 nM.

Take `CN1CCN(c2ccc(Nc3ccc(-c4cc[nH]c(=O)c4)n4ncnc34)cc2)CC1` [Example 40, 4-(8-{[4-(4-methylpiperazin-1-yl)phenyl]amino}[1,2,4]triazolo[1,5-a]pyridin-5-yl)pyridin-2(1H)-one]: the IC50 in assay [1] (Fibroblast, 48 h) fell in the range of 1000 to 5000 nM; in assay [2] (Homo sapiens, THP-1, 48 h), 1000 to 5000 nM.

`O=C(NCc1cccnc1)c1ccc(Nc2ccc(-c3cc[nH]c(=O)c3)n3ncnc23)cc1` [Example 41, 4-{[5-(2-oxo-1,2-dihydropyridin-4-yl)[1,2,4]triazolo[1,5-a]pyridin-8-yl]amino}-N-(pyridin-3-ylmethyl)benzamide]: the IC50 in assay [1] (Fibroblast, 48 h) is 1000 to 5000 nM; in assay [2] (Homo sapiens, THP-1, 48 h) it was greater than 10000 nM.

Regarding `CN1CCN(c2ccc(Nc3ccc(-c4ccc(C(N)=O)c(F)c4)n4ncnc34)cc2)CC1` [Example 42, 2-fluoro-4-(8-{[4-(4-methylpiperazin-1-yl)phenyl]amino}[1,2,4]triazolo[1,5-a]pyridin-5-yl)benzamide], the IC50 is 501 to 1000 nM in assay [1] (Fibroblast, 48 h) and greater than 10000 nM in assay [2] (Homo sapiens, THP-1, 48 h).
